Test results: US11896571B2, “Methods for increasing oral osteogenesis using lipoxin A4 (LXA4) and its analogs” (Forsyth Dental Infirmary for Children, priority 2013, dated 2024)

Tests used:
[1] = test system: acute inflammation (PMN infiltration, pro-inflammatory cytokines); settings: mouse model of acute inflammation, cited from earlier work
[2] = test system: periodontal disease and bone loss (intrabony defects around second and fourth premolars); test: Minipig periodontal disease model: periodontal flap surgery with a single application, μCT and conventional radiographic imaging; format: in vivo, minipigs (Hanford)
Experimental: The Institutional Animal Care Committee at the Forsyth Institute and PARF, Inc reviewed and approved the animal protocol prior any study activities. Two adult (18-24 months old) female minipigs (Hanford) were purchased and acclimatized for at least 7 days before any procedures. All surgical and follow up procedures and housing throughout the study duration (about 6 months including disease induction period) were performed at an animal and surgical facility at PARF, Inc.
Anesthesia and surgical procedures were conducted as described in Hasturk H, Kantarci A, Ghattas M, Schmidt M, Giordano R, Ashman A, Diekwisch T, Van Dyke T E. The Use of Light/Chemically-Hardened Poly-Methyl-Methacrylate, Poly-Hydroxyl-Ethyl-Methacrylate and Calcium Hydroxide Graft Material in Combination with Polyanhydride around Implants in Minipigs: Part I: Immediate Stability and Function. J Periodontol. 2011 September; 82(9):1339-1352, which is incorporated by reference in its entirety herein. Briefly, minipigs were premedicated with Telazol (4-6 mg/kg IM) and xylazine (2.2 mg/kg IM) and were maintained by 3-4% isoflurane for induction and 0.5-2% isoflurane for maintenance. Each pig was anesthetized for approximately two hours during ligature placement and intraoral photographs. Endotracheal intubation was performed whenever the pig was fully anesthetized. Periodontal disease and bone loss were induced by creating intrabony defects using burs and ligatures in all four quadrants around the same teeth (second and fourth premolars) (FIG. 2A). After ligature placement, animals were fed with soft diet to stimulate plaque accumulation around ligatures for 6 weeks.
Oral examination, including digital photographs, were repeated at 2 and 4 weeks and ligatures were removed at 6 weeks. The sites were left untreated for about 38 days to stabilize the periodontal disease and bone loss obtained and to eliminate the self healing aspect of the bone defects. Accordingly, the defects were chronically created for the baseline treatments (FIG. 2B).
At Day 0 (baseline), the minipigs were anesthetized as described above. […]

[3] = test system: periodontitis and inflammation-induced bone destruction; settings: rabbit periodontitis; cited from earlier work

Compound | levels of pro-inflammatory cytokines ([1]; in vivo) | polymorphonuclear leukocyte (PMN) infiltration ([1]; in vivo) | anti-inflammatory properties [1] | number of applications after which oral osteogenesis effects were observed ([2]; applied to debrided chronic periodontal lesion at periodontal flap surgery) | bone regeneration by conventional radiographic imaging of teeth ([2]; surgery plus 9,12 benzo LXA4 vs surgery alone (FIG. 3)) | bone osteogenesis by micro-computed tomography (μCT) imaging of teeth ([2]; surgery plus 9,12 benzo LXA4 vs surgery alone, 0.1-1 μM, light gel, applied at flap surgery, bone covering root notches (FIG. 3)) | bone loss [3] | inflammation [3] | tissue regeneration [3]
9,12 benzo-LXA4 [9,12, benzo LXA4] | significantly reducing | significantly reducing | potent anti-inflammatory properties | observed after only a single application | regenerated bone to essentially pre-disease levels | induction of bone osteogenesis following LXA4 treatment was observed |  |  | 
CC[C@@H](O)/C=C/C=C\C[C@@H](O)/C=C/C=C/C=C\[C@@H](O)CCCC(=O)O [resolvin E1 (RVE1), resolvin E1] |  |  |  |  |  |  | protects from bone loss | reduces inflammation | stimulates tissue regeneration
